Values of other authors as cited in US9623127B2, “Multimodal contrast and radiopharmaceutical agent for an imaging and a targeted therapy guided by imaging” (CENTRE NATIONAL DE LA RECHERCHE SCIENTIFIQUE, priority 2011, dated 2017).

Settings: 0.6 T, 20° C.

O=C([O-])CN(CCN(CC(=O)[O-])CC(=O)O)CCN(CC(=O)[O-])CC(=O)O.[Gd+3] [Gd(III)DTPA]
longitudinal relaxivity r1: 5.4 mM⁻¹ s⁻¹
